{"source": "patent US20060110333A1", "about": "(priority 2002, published 2006)", "assay": "Plasma buprenorphine concentration after single administration (LC-MS/MS)", "conditions": "0.1 mg/kg in terms of buprenorphine, cynomolgus monkey"}
{"smiles": "CO[C@@]12CC[C@@]3(C[C@@H]1[C@](C)(O)C(C)(C)C)[C@H]1Cc4ccc(O)c5c4[C@@]3(CCN1CC1CC1)[C@H]2O5.Cl", "note": "[Comparative Example 2, buprenorphine hydrochloride]", "values": [{"measurement": "Plasma buprenorphine concentration", "setting": "0 min, mean ± SD, intravenous", "value": 0, "unit": "ng/mL"}, {"measurement": "Plasma buprenorphine concentration", "setting": "10 min, Animal 1, intravenous", "value": 41.40, "unit": "ng/mL"}, {"measurement": "Plasma buprenorphine concentration", "setting": "10 min, Animal 2, intravenous", "value": 32.16, "unit": "ng/mL"}, {"measurement": "Plasma buprenorphine concentration", "setting": "10 min, Animal 3, intravenous", "value": 41.33, "unit": "ng/mL"}, {"measurement": "Plasma buprenorphine concentration", "setting": "10 min, mean ± SD, intravenous", "value": "38.30 ± 5.31", "unit": "ng/mL"}, {"measurement": "Plasma buprenorphine concentration", "setting": "30 min, Animal 1, intravenous", "value": 32.83, "unit": "ng/mL"}, {"measurement": "Plasma buprenorphine concentration", "setting": "30 min, Animal 2, intravenous", "value": 18.02, "unit": "ng/mL"}, {"measurement": "Plasma buprenorphine concentration", "setting": "30 min, Animal 3, intravenous", "value": 33.53, "unit": "ng/mL"}, {"measurement": "Plasma buprenorphine concentration", "setting": "30 min, mean ± SD, intravenous", "value": "28.12 ± 8.76", "unit": "ng/mL"}, {"measurement": "Plasma buprenorphine concentration", "setting": "60 min, Animal 1, intravenous", "value": 16.85, "unit": "ng/mL"}, {"measurement": "Plasma buprenorphine concentration", "setting": "60 min, Animal 2, intravenous", "value": 16.45, "unit": "ng/mL"}, {"measurement": "Plasma buprenorphine concentration", "setting": "60 min, Animal 3, intravenous", "value": 26.51, "unit": "ng/mL"}, {"measurement": "Plasma buprenorphine concentration", "setting": "60 min, mean ± SD, intravenous", "value": "19.94 ± 5.70", "unit": "ng/mL"}, {"measurement": "Plasma buprenorphine concentration", "setting": "120 min, Animal 1, intravenous", "value": 8.27, "unit": "ng/mL"}, {"measurement": "Plasma buprenorphine concentration", "setting": "120 min, Animal 2, intravenous", "value": 9.34, "unit": "ng/mL"}, {"measurement": "Plasma buprenorphine concentration", "setting": "120 min, Animal 3, intravenous", "value": 16.13, "unit": "ng/mL"}, {"measurement": "Plasma buprenorphine concentration", "setting": "120 min, mean ± SD, intravenous", "value": "11.25 ± 4.26", "unit": "ng/mL"}, {"measurement": "Plasma buprenorphine concentration", "setting": "240 min, Animal 1, intravenous", "value": 3.78, "unit": "ng/mL"}, {"measurement": "Plasma buprenorphine concentration", "setting": "240 min, Animal 2, intravenous", "value": 4.55, "unit": "ng/mL"}, {"measurement": "Plasma buprenorphine concentration", "setting": "240 min, Animal 3, intravenous", "value": 7.05, "unit": "ng/mL"}, {"measurement": "Plasma buprenorphine concentration", "setting": "240 min, mean ± SD, intravenous", "value": "5.13 ± 1.71", "unit": "ng/mL"}, {"measurement": "Plasma buprenorphine concentration", "setting": "480 min, Animal 1, intravenous", "value": 1.46, "unit": "ng/mL"}, {"measurement": "Plasma buprenorphine concentration", "setting": "480 min, Animal 2, intravenous", "value": 0.97, "unit": "ng/mL"}, {"measurement": "Plasma buprenorphine concentration", "setting": "480 min, Animal 3, intravenous", "value": 2.00, "unit": "ng/mL"}, {"measurement": "Plasma buprenorphine concentration", "setting": "480 min, mean ± SD, intravenous", "value": "1.48 ± 0.52", "unit": "ng/mL"}]}
